Among the data in patent US20250223307A1, “MDM2/MDMX DOUBLE-TARGET INHIBITOR COMPOUND, PRODRUG, PHARMACEUTICAL COMPOSITION, AND PREPARATION METHOD THEREFOR AND USE THEREOF” (GLOBAL HEALTH DRUG DISCOVERY INSTITUTE, priority 2022, published 2025) are IC50 values, retold here.

One experiment deals with MDM2 (Homo sapiens, UniProt Q00987). Description: HTRF test: inhibition of MDM2-p53 protein binding. Background: Time-resolved FRET reads energy transfer from a long-lived donor to a nearby acceptor.
MDM2, sequence (Q00987 2-138): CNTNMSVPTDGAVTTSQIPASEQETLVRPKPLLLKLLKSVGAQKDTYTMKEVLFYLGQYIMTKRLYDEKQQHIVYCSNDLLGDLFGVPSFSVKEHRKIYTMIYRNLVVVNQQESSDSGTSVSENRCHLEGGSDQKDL
For experiment [1], the system named is Blood cancer cells RS4; 11. Nature of the experiment: CellTiter Glo test: growth inhibition of cells. It counts as cell-based. The note with it: Homo sapiens, 11 cells, 72 h, cell viability. As for the experimental part: Test of Candidate Compounds on Growth Inhibition of Cells Determined by CellTiter Glo
Blood cancer cells RS4; 11 were inoculated into the 96-well cell culture plate through Multidrop 3000 cells per well, with a volume of 100 μL. The final compound concentration ranged from 50 μM to 0.01 μM at 9 concentration gradients and the DMSO final concentration was 0.1%. The cells and compounds were co-incubated in a cell incubator at 37° C. for 72 h, a CellTiter-Glo Luminescent Cell Viability Assay reagent was added 100 μL/well, the cells and compound were uniformly mixed and incubated at room temperature for 10 min, and Envision reading was performed. A sample treated with 50 μM of a positive compound was taken as a positive control and a sample treated with 100 nL of DMSO was taken as a negative control.
A general note: Cellular ATP, detected with luciferase, serves as a proxy for viable cell number.

The next experiment deals with T1, MDMX (Homo sapiens, UniProt O15151).
T1 sequence (O15151 2-134): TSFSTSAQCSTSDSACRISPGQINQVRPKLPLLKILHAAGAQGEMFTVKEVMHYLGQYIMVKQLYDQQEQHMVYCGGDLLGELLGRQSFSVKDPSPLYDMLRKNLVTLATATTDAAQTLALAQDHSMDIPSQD
Nature of the experiment: HTRF test: inhibition of MDMX-p53 protein binding.

Where only a bound is given, the exact number is not on record here.

Broadly, the IC50 is the concentration at which inhibition is half-maximal. High values mean weaker potency in that assay, low ones greater potency in that assay. As to `O=C1N/C(=C\c2c[nH]c3c(F)c(Cl)ccc23)C(=O)N1Cc1ccc(Cl)c(F)c1F` [Compound 104, (Z)-3-(4-chloro-2,3-difluorobenzyl)-5-((6-chloro-7-fluoro-1H-indol-3-yl)methylene)imidazolidine-2,4-dione], the concentration for half-maximal inhibition (IC50) at MDM2 was 10 to 100 nM; in experiment [1], not above 1000 nM; on MDMX, 10 to 100 nM.

As to `C#Cc1ccc(CN2C(=O)N/C(=C\c3c[nH]c4c(F)c(Cl)ccc34)C2=O)cc1` [Compound 17, (Z)-5-((6-chloro-7-fluoro-1H-indol-3-yl)methylene)-3-(4-acetenylbenzyl)imidazolidine-2,4-dione], the IC50 was 10 to 100 nM at MDM2, not above 1000 nM in experiment [1] and 10 to 100 nM at MDMX.

Turning to `Cc1c(Cl)ccc2c(/C=C3\NC(=O)N(C(C(=O)NC(CO)CO)c4ccc(C#N)cc4)C3=O)c[nH]c12` (stereo not drawn) [Compound 32, (Z)-2-(4-((6-chloro-7-methyl-1H-indol-3-yl)methylene)-2,5-dioxoimidazolidin-1-yl)-2-(4-cyanophenyl)-N-(1,3-dihydroxypropan-2-yl)acetamide], the IC50 at MDM2 was less than 10 nM; in experiment [1], 1000 to 10000 nM; on MDMX, less than 10 nM.

Turning to `O=C(NCCO)C(c1ccc(Cl)cc1)N1C(=O)N/C(=C\c2c[nH]c3cc(Cl)ccc23)C1=O` (stereo not drawn) [Compound 62, (Z)-2-(4-((6-chloro-1H-indol-3-yl)methylene)-2,5-dioxoimidazolidin-1-yl)-2-(4-chlorophenyl)-N-(2-hydroxyethyl)acetamide], the IC50 on MDM2 was less than 10 nM; in experiment [1], not above 1000 nM; on MDMX, 10 to 100 nM.

On to `Cc1c(Cl)ccc2c(/C=C3\NC(=O)N(C(C(=O)NC45CCC(O)(CC4)CC5)c4ccc(F)c(F)c4)C3=O)c[nH]c12` (stereo not drawn) [Compound 66, (Z)-2-(4-((6-chloro-7-methyl-1H-indol-3-yl)methylene)-2,5-dioxoimidazolidin-1-yl)-2-(3,4-difluorophenyl)-N-(4-hydroxylbicyclo[2.2.2]octan-1-yl)acetamide], for which the figures for the IC50 (on MDM2; in experiment [1]; on MDMX) were less than 10 nM, not above 1000 nM and less than 10 nM, respectively.

As to `N#Cc1ccc(CN2C(=O)N/C(=C\c3c[nH]c4c(F)c(Cl)ccc34)C2=O)c(F)c1F` [Compound 34, 4-{[(4Z)-4-[(6-chloro-7-fluoro-1H-indol-3-yl)methylene]-2,5-dioxoimidazolidin-1-yl]methyl}-2,3-difluorobenzonitrile], the values for the IC50 (at MDM2; in experiment [1]; at MDMX) were less than 10 nM, not above 1000 nM and 10 to 100 nM, respectively.

`O=C(NCCO)C(c1ccc(F)c(F)c1)N1C(=O)N/C(=C\c2c[nH]c3c(F)c(Cl)ccc23)C1=O` (stereo not drawn) [Compound 72, (Z)-2-(4-((6-chloro-7-fluoro-1H-indol-3-yl)methylene)-2,5-dioxoimidazolidin-1-yl)-2-(3,4-difluorophenyl)-N-(2-hydroxyethyl)acetamide]: the values for the IC50 (at MDM2; in experiment [1]; on MDMX) were less than 10 nM, not above 1000 nM and less than 10 nM, respectively.

On to `Cc1c(Cl)ccc2c(/C=C3\NC(=O)N(C(C(=O)NCC45CC(O)(C4)C5)c4ccc(F)c(F)c4)C3=O)c[nH]c12` (stereo not drawn) [Compound 68, (Z)-2-(4-((6-chloro-7-methyl-1H-indol-3-yl)methylene)-2,5-dioxoimidazolidin-1-yl)-2-(3,4-difluorophenyl)-N-((3-hydroxylbicyclo[1.1.1]pentan-1-yl)methyl)acetamide], for which the IC50 was less than 10 nM at MDM2, not above 1000 nM in experiment [1] and less than 10 nM on MDMX.

On to `N#Cc1ccc(CN2C(=O)N/C(=C\c3c[nH]c4c(F)c(Cl)ccc34)C2=O)cc1` [Compound 16, (Z)-4-((4-((6-chloro-7-fluoro-1H-indol-3-yl)methylene)-2,5-dioxoimidazolidin-1-yl)methyl)benzonitrile], for which the IC50 at MDM2 was less than 10 nM; in experiment [1], not above 1000 nM; at MDMX, less than 10 nM.

With `Cc1c(Cl)ccc2c(/C=C3\NC(=O)N(Cc4ccc(C#N)cc4)C3=O)c[nH]c12` [Compound 19, (Z)-4-((4-((6-chloro-7-methyl-1H-indol-3-yl)methylene)-2,5-dioxoimidazolidin-1-yl)methyl)benzonitrile], the IC50 at MDM2 is less than 10 nM; in experiment [1], not above 1000 nM; on MDMX, less than 10 nM.

Take `O=C1N/C(=C\c2c[nH]c3cc(Cl)ccc23)C(=O)N1[C@H](CO)c1ccc(F)c(F)c1` [Compound 53, (S,Z)-5-((6-chloro-1H-indol-3-yl)methylene)-3-(1-(3,4-difluorophenyl)-2-hydroxyethyl)imidazolidine-2,4-dione]: the IC50 at MDM2 was less than 10 nM; in experiment [1] it was 1000 to 10000 nM; at MDMX, less than 10 nM.

On to `N#Cc1ccc(CN2C(=O)N/C(=C\c3c[nH]c4c(OCF)c(Cl)ccc34)C2=O)cc1` [Compound 13, (Z)-4-((4-((6-chloro-7-(fluoromethoxyl)-1H-indol-3-yl)methylene)-2,5-dioxoimidazolidin-1-yl)methyl)benzonitrile], for which the IC50 is less than 10 nM at MDM2, more than 10000 nM in experiment [1] and 10 to 100 nM at MDMX.

Regarding `N#Cc1ccc(C(C(=O)NC(CO)CO)N2C(=O)N/C(=C\c3c[nH]c4c(F)c(Cl)ccc34)C2=O)cc1` (stereo not drawn) [Compound 29, (Z)-2-(4-((6-chloro-7-fluoro-1H-indol-3-yl)methylene)-2,5-dioxoimidazolidin-1-yl)-2-(4-cyanophenyl)-N-(1,3-dihydroxypropan-2-yl)acetamide], the IC50 was less than 10 nM on MDM2, 1000 to 10000 nM in experiment [1] and less than 10 nM at MDMX.

As for `N#Cc1c(F)cc(CN2C(=O)N/C(=C\c3c[nH]c4c(F)c(Cl)ccc34)C2=O)cc1F` [Compound 35], the IC50 at MDM2 was 10 to 100 nM; in experiment [1], not above 1000 nM; on MDMX, 10 to 100 nM.

As to `N#Cc1ccc(C(C=O)N2C(=O)N/C(=C\c3c[nH]c4c(F)c(Cl)ccc34)C2=O)cc1F` (stereo not drawn) [Compound 33, (Z)-4-(1-(4-((6-chloro-7-fluoro-1H-indol-3-yl)methylene)-2,5-dioxoimidazolidin-1-yl)-2-oxyethyl)-2-fluorobenzonitrile], the IC50 at MDM2 lay in the range of 10 to 100 nM; in experiment [1], 1000 to 10000 nM; on MDMX, 10 to 100 nM.

For `N#Cc1ccc(CN2C(=O)N/C(=C\c3c[nH]c4c(OCF)c(Cl)ccc34)C2=O)cc1F` [Compound 11, (Z)-4-((4-((6-chloro-7-(fluoromethoxyl)-1H-indol-3-yl)methylene)-2,5-dioxoimidazolidin-1-yl)methyl)-2-fluorobenzonitrile], the results for the IC50 (at MDM2; in experiment [1]; on MDMX) were less than 10 nM, 1000 to 10000 nM and 10 to 100 nM, respectively.

`N#Cc1ccc(C(CO)N2C(=O)N/C(=C\c3c[nH]c4c(F)c(Cl)ccc34)C2=O)cc1` (stereo not drawn) [Compound 85, (Z)-4-(1-(4-((6-chloro-7-fluoro-1H-indol-3-yl)methylene)-2,5-dioxoimidazolidin-1-yl)-2-hydroxyethyl)benzonitrile]: the 50% inhibitory concentration (IC50) is less than 10 nM on MDM2, not above 1000 nM in experiment [1] and less than 10 nM at MDMX.

For `O=C1N/C(=C\c2c[nH]c3cc(Cl)ccc23)C(=O)N1Cc1ccc(Cl)cc1` [Compound 2, (Z)-5-((6-chloro-1H-indol-3-yl)methylene)-3-(4-chlorobenzyl)imidazolidine-2,4-dione], the half-inhibitory concentration (IC50) at MDM2 was 10 to 100 nM; in experiment [1] it was not above 1000 nM; at MDMX, 10 to 100 nM.

`Cc1c(Cl)ccc2c(/C=C3\NC(=O)N(C(CO)c4ccc(Cl)cc4)C3=O)c[nH]c12` (stereo not drawn) [Compound 70, (Z)-5-((6-chloro-7-methyl-1H-indol-3-yl)methylene)-3-(1-(4-chlorophenyl)-2-hydroxyethyl)imidazolidine-2,4-dione]: the results for the IC50 (on MDM2; in experiment [1]; at MDMX) were 10 to 100 nM, not above 1000 nM and 10 to 100 nM, respectively.

As for `N#Cc1ccc(CN2C(=O)N/C(=C\c3c[nH]c4cc(Cl)ccc34)C2=O)cc1` [Compound 4, (Z)-4-((4-((6-chloro-1H-indol-3-yl)methylene)-2,5-dioxoimidazolidin-1-yl)methyl)benzonitrile], the IC50 was 10 to 100 nM on MDM2, not above 1000 nM in experiment [1] and 10 to 100 nM at MDMX.

With `Cc1c(Cl)ccc2c(/C=C3\NC(=O)N(C(C(=O)NCC45CCC(O)(CC4)CC5)c4ccc(F)c(F)c4)C3=O)c[nH]c12` (stereo not drawn) [Compound 64, (Z)-2-(4-((6-chloro-7-methyl-1H-indol-3-yl)methylene)-2,5-dioxoimidazolidin-1-yl)-2-(3,4-difluorophenyl)-N-((4-hydroxylbicyclo[2.2.2]octan-1-yl)methyl)acetamide], the IC50 on MDM2 is less than 10 nM; in experiment [1], not above 1000 nM; at MDMX, less than 10 nM.

On to `O=C1N/C(=C\c2c[nH]c3c(F)c(Cl)ccc23)C(=O)N1C(CO)c1ccc(Cl)c(F)c1` (stereo not drawn) [Compound 77, (Z)-3-(1-(4-chloro-3-fluorophenyl)-2-hydroxyethyl)-5-((6-chloro-7-fluoro-1H-indol-3-yl)methylene)imidazolidine-2,4-dione], for which the IC50 at MDM2 is 10 to 100 nM; in experiment [1] it was not above 1000 nM; on MDMX, 10 to 100 nM.

For `O=C1N/C(=C\c2c[nH]c3c(F)c(Cl)ccc23)C(=O)N1C(CO)c1c(F)cc(Cl)cc1F` (stereo not drawn) [Compound 103, (Z)-3-(1-(4-chloro-2,6-difluorophenyl)-2-hydroxyethyl)-5-((6-chloro-7-fluoro-1H-indol-3-yl)methylene)imidazolidine-2,4-dione], the IC50 is less than 10 nM on MDM2, 1000 to 10000 nM in experiment [1] and more than 100 nM on MDMX.
